According to the supplement of paper PMC12592484:

How the values were obtained:
Test in all cases: drug sensitivity score (DSS2, normalised partial AUC of dose-response, 72 h CellTiter-Glo viability) (DSS (dimensionless)); higher = more sensitive (stronger growth inhibition / cytotoxicity); extreme values may be limits of the assay
PF179T = tested on: PF179T
How it was run: (§1)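 The drug sensitivity score reported here is a partial area under the fitted logistic dose–response curve, divided by the log of the curve's upper asymptote and computed in BREEZE; higher values denote greater sensitivity. Low-passage primary prostate cancer-associated fibroblasts, PF179T, WPMY-1, LNCaP and 22Rv1 cells were seeded into 384-well plates preloaded with compounds at five doses across a 10,000-fold range. CellTiter-Glo 2.0 luminescence gave viability at 72 h, scaled to vehicle and positive-control wells.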

LNCAP = tested on: LNCAP
How it was run: as §1

CAF#6 = tested on: CAF#6 (primary prostate cancer-associated fibroblasts of iCAF-like type)
How it was run: as §1

CAF#7 = tested on: CAF#7 (primary prostate cancer-associated fibroblasts of myCAF-like type)
How it was run: as §1

CAF#1 = tested on: CAF#1 (primary prostate cancer-associated fibroblasts of myCAF-like type)
How it was run: as §1

CAF#3 = tested on: CAF#3 (primary prostate cancer-associated fibroblasts of myCAF-like type)
How it was run: as §1

22Rv1 = tested on: 22Rv1
How it was run: as §1

CAF#4 = tested on: CAF#4 (primary prostate cancer-associated fibroblasts of iCAF-like type)
How it was run: as §1

WPMY-1 = tested on: WPMY-1
How it was run: as §1

CAF#2 = tested on: CAF#2 (primary prostate cancer-associated fibroblasts of iCAF-like type)
How it was run: as §1

CAF#5 = tested on: CAF#5 (primary prostate cancer-associated fibroblasts of myCAF-like type)
How it was run: as §1

Compound | drug sensitivity score (PF179T) | drug sensitivity score (LNCAP) | drug sensitivity score (CAF#6) | drug sensitivity score (CAF#7) | drug sensitivity score (CAF#1) | drug sensitivity score (CAF#3) | drug sensitivity score (22Rv1) | drug sensitivity score (CAF#4) | drug sensitivity score (WPMY-1) | drug sensitivity score (CAF#2) | drug sensitivity score (CAF#5)
O=c1sn(-c2cccc3ccccc23)c(=O)n1Cc1ccccc1 [Tideglusib] (tested concentration range 0.3-3000 nM) | 0 | 0 | 2.3 | 1.6 | 0 | 0 | 0 | 0 | 0 | 0.8 | 0
Clc1ccccc1C(c1ccccc1)(c1ccccc1)n1cccn1 [TRAM-34] (tested concentration range 0.1-1000 nM) | 0 | 0 | 0 | 0 | 0.8 | 0 | 0 | 0 | 0 | 0.1 | 0
CC(C)Oc1ccc(-c2nn([C@@H](C)c3oc4ccc(F)cc4c(=O)c3-c3cccc(F)c3)c3ncnc(N)c23)cc1F [Umbralisib] (tested concentration range 0.2-2500 nM) | 0 | 3.4 | 0 | 0 | 1.1 | 2.4 | 0 | 0 | 0 | 0.9 | 0
Cn1ncnc1[C@H]1c2n[nH]c(=O)c3cc(F)cc(c23)N[C@@H]1c1ccc(F)cc1 [Talazoparib] (tested concentration range 0.1-1000 nM) | 11.2 | 15.3 | 1.6 | 2.9 | 4.9 | 2.1 | 11.5 | 3.4 | 4 | 8 | 6.2
Cn1cc(-c2ccc(F)c(C(F)(F)F)c2)nc1C1CCN(c2ncnc3[nH]ncc23)CC1 (tested concentration range 1-10000 nM) | 0 | 7.1 | 0.5 | 0.4 | 1.3 | 0 | 2.3 | 1.4 | 0 | 1 | 1.5
CC1(C)CCC(CN2CCN(c3ccc(C(=O)NS(=O)(=O)c4ccc(NCC5CCOCC5)c([N+](=O)[O-])c4)c(Oc4cnc5[nH]ccc5c4)c3)CC2)=C(c2ccc(Cl)cc2)C1 [Venetoclax] (tested concentration range 0.1-1000 nM) | 0 | 0 | 0 | 0 | 0 | 0 | 0 | 0 | 0 | 0 | 0
C=C(c1ccc(C(=O)O)cc1)c1cc2c(cc1C)C(C)(C)CCC2(C)C [Bexarotene] (tested concentration range 1-10000 nM) | 10.2 | 0 | 0 | 1.2 | 4.7 | 0 | 1.6 | 3.7 | 2.1 | 10.1 | 3.8
CC[C@]1(O)C[C@@H]2CN(CCc3c([nH]c4ccccc34)[C@@](C(=O)OC)(c3cc4c(cc3OC)N(C)[C@H]3[C@@](O)(C(=O)OC)[C@H](OC(C)=O)[C@]5(CC)C=CCN6CC[C@]43[C@@H]65)C2)C1 [Vinblastine] (tested concentration range 0.1-1000 nM) | 5.9 | 24.7 | 5.1 | 7.5 | 4.1 | 2.8 | 7.7 | 3.6 | 11.9 | 5.6 | 5.2
C[C@@H](Oc1ccc2[nH]nc(/C=C/c3cnn(CCO)c3)c2c1)c1c(Cl)cncc1Cl (tested concentration range 0.1-1000 nM) | 8.9 | 2.5 | 10.9 | 18.7 | 9.7 | 9.9 | 2.9 | 5.7 | 8 | 7.2 | 6.7
CC(=O)c1cc2c(o1)C(=O)c1ccccc1C2=O [Napabucasin] (tested concentration range 2-20000 nM) | 21 | 19.5 | 16.8 | 9.5 | 11.2 | 16.4 | 17.7 | 22.4 | 19.8 | 22.6 | 11.7
Nc1nc2[nH]cnc2c(=S)[nH]1 [Thioguanine] (tested concentration range 1-10000 nM) | 4.9 | 0.4 | 3.7 | 4.9 | 1.1 | 0.2 | 8.8 | 2.9 | 11.8 | 3.6 | 1.8
O=C1CCC(N2C(=O)c3ccccc3C2=O)C(=O)N1 (centres undefined) [Thalidomide] (tested concentration range 1-10000 nM) | 0 | 0 | 0 | 0 | 0 | 0 | 0 | 0 | 0 | 0 | 0
O=C(Nc1ccc(OC(F)(F)Cl)cc1)c1cnc(N2CC[C@@H](O)C2)c(-c2cc[nH]n2)c1 [Asciminib] (tested concentration range 0.1-1000 nM) | 0 | 0 | 0 | 0 | 0.5 | 0 | 0 | 0 | 0 | 0 | 0
CNC(=O)c1cc(Oc2ccc(NC(=O)Nc3ccc(Cl)c(C(F)(F)F)c3)c(F)c2)ccn1 [Regorafenib] (tested concentration range 1-10000 nM) | 1.9 | 7.2 | 1 | 2.7 | 2.8 | 3.7 | 6 | 2.4 | 3.8 | 3.4 | 3.2
C[C@]12CC[C@H](O)CC1=CC[C@@H]1[C@@H]2CC[C@]2(C)C(c3cccnc3)=CC[C@@H]12 [Abiraterone] (tested concentration range 0.5-5000 nM) | 0 | 1.3 | 0 | 0 | 0 | 0 | 0 | 0 | 0 | 0 | 1.5
COc1ccc(Cn2ccc3ccc(C(=O)NO)cc32)cc1 (tested concentration range 1-10000 nM) | 4.8 | 5.5 | 4.1 | 4 | 2.8 | 2.9 | 2.8 | 1.4 | 2.8 | 3.1 | 1.4
O=C(c1ccc(F)c(F)c1Nc1ccc(I)cc1F)N1CC(O)([C@@H]2CCCCN2)C1 [Cobimetinib] (tested concentration range 0.1-1000 nM) | 2.1 | 0 | 3.3 | 5.3 | 0.5 | 0 | 9.6 | 1.6 | 4.2 | 3.9 | 1.9
Nc1ccn([C@@H]2O[C@H](CO)[C@@H](O)C2(F)F)c(=O)n1 [Gemcitabine] (tested concentration range 0.1-1000 nM) | 18 | 16.4 | 4.4 | 7.2 | 3.1 | 3.9 | 20.9 | 8 | 22.5 | 10 | 5.6
CC(C)C[C@H](NC(=O)CNC(=O)c1cc(Cl)ccc1Cl)B(O)O [Ixazomib] (tested concentration range 0.1-1000 nM) | 4.9 | 12.9 | 6 | 7.4 | 4.6 | 7.2 | 10.7 | 5.8 | 16.5 | 6.3 | 7.3
CNC(=O)[C@@H](NC(=O)[C@H](CC(C)C)[C@H](O)C(=O)NO)C(C)(C)C [Marimastat] (tested concentration range 1-10000 nM) | 0 | 0 | 0 | 0 | 0 | 0.6 | 0 | 0 | 0.4 | 0 | 0
COc1cc2c(cc1OCCCN1CCCC1)N=C(N)C21CCC1 [A-366] (tested concentration range 2.5-25000 nM) | 0.1 | 5.6 | 1.5 | 0 | 0 | 0.7 | 6.7 | 0 | 4.5 | 0 | 0
CNC(=O)c1ccccc1Sc1ccc2c(/C=C/c3ccccn3)n[nH]c2c1 [Axitinib] (tested concentration range 1-10000 nM) | 0.8 | 5.7 | 3.3 | 5.5 | 2.8 | 5.5 | 1.6 | 4.2 | 4.9 | 5.1 | 2
Nc1ncn([C@H]2C[C@H](O)[C@@H](CO)O2)c(=O)n1 [Decitabine] (tested concentration range 1-10000 nM) | 1.8 | 0 | 0.6 | 0 | 0 | 0.1 | 1.1 | 0 | 0.8 | 0.8 | 1.6
CNC(=O)c1cccc(-c2ccc3c(N4CCOC[C@@H]4C)nc(N4CCOC[C@@H]4C)nc3n2)c1 [Vistusertib] (tested concentration range 1-10000 nM) | 16.2 | 19.4 | 14 | 14.4 | 17.7 | 14.8 | 19.9 | 17.9 | 13.7 | 15.8 | 19.6
